Experimental data as given in patent US10519133B2, “Vinyl compounds as FGFR and VEGFR inhibitors” (MEDSHINE DISCOVERY INC., priority 2015, dated 2019).
Like-named read-outs stand apart in the source and are kept apart here.

Legend:
FGFR1 = molecular target: T1, FGFR1 (Homo sapiens, UniProt P11362); test: Z′-LYTE Detection Kinase Assay, in vitro enzymatic activity; assay type: biochemical; details: 0.6 nM FGFR1, 2 uM Tyr4 peptide, 10 uM ATP, 60 min 23° C.
T1 construct: purchased Invitrogen PV4105
T1 sequence (P11362 22-822): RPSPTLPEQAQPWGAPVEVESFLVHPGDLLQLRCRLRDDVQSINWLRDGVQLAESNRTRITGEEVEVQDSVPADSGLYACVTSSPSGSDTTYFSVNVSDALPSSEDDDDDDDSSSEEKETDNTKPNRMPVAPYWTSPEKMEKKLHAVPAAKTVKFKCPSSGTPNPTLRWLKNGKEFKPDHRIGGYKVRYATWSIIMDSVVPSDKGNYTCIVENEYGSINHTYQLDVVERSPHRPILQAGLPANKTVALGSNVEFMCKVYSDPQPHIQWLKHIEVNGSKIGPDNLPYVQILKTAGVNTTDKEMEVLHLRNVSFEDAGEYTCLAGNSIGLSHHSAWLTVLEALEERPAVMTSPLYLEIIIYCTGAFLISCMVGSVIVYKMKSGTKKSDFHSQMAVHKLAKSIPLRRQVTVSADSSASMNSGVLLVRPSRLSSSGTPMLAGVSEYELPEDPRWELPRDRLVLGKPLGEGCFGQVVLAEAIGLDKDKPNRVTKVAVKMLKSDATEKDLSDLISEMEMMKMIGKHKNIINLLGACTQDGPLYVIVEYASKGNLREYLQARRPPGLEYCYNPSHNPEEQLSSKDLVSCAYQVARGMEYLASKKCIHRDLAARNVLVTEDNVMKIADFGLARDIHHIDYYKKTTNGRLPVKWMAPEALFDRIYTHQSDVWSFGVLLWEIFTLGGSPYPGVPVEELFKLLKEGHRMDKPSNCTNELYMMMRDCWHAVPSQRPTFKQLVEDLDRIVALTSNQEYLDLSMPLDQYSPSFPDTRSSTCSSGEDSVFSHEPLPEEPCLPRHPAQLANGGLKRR
Protocol: To measure enzyme activity by Z′-LYTE™ Detection Kinase Assay, and to evaluate the inhibitory effect of the compounds on FGFR1 using IC50 value of the compounds as an indicator. […]
Reaction Buffer: 50 mM Hepes (pH 7.5), 10 mM MgCl2, 1 mM EGTA, 0.01% Brij-35, 1 mM DTT, 2 mM MnCl2 0.6 nM FGFR1, 2 uM Tyr4 peptide and 10 uM ATP in reaction buffer (50 mM Hepes, pH 7.5, 10 mM MgCl2, 0.01% BRIJ-35, 1 mM EGTA, 4 mM MnCl2, 2 mM DTT). a. Diluting the compounds with DMSO to 10 mM, 3-fold dilution, 11 gradients, duplicate wells. b. Diluting the compound by 1:25 into middle plate at Bravo Automatic Liquid Station, then transferring 2.5 ul to the reaction plate to ensure the final DMSO concentration to be 1%. c. Transferring 5 ul of enzyme/substrate buffer into each well d. Using Multidrop Liquid Workstation to sequentially add ATP solution to each well e. Centrifuging at 1000 rpm for 1 minute f. Placing the reaction plate in an incubator at 23° C. to react for 60 min. a. Preparing a 1:128 mixture of Development Regent B and Development Buffer b. Adding 5 ul to each well and centrifuging at 1000 rpm for 1 minute c. Placing the reaction plate in a thermostat (23° C.) after centrifuging for 90 minutes, removing and reading on Envision (Perkin Elmer) Plate Reader
D. Analyzing Data: Analyzing Data Using XLFIT (IDBS) and Calculating IC50 Values for the Compounds.

SNU-16 cell = test: CellTiter-Glo Luminescent Cell Viability Assay; assay type: cell-based; details: Homo sapiens, 72 h; SNU-16 cells, 3 days; read-out: SNU-16 IC50 (CellTiter-Glo Detection)
Protocol: To detect the change of intracellular ATP by CellTiter-Glo® Luminescent Cell Viability Assay, and to evaluate the inhibitory effect of the compounds on in vitro cell SNU-16 using IC50 value of the compounds as an indicator.
Cell line: SNU-16 cell strain d. Diluting SNU-16 with medium, adding the diluted cells to the 384 plate (Greiner. 781090) (50 μL/well, SNU-16 cell 750 cells/well) with multi-channel pipette. Placing the cell plate in a 37° C., 5% CO2 incubator overnight. […]
g. Diluting the compound with DMSO to 10 mM, 3-fold dilution, 11 gradients, duplicate wells. h. Transferring 2.4 ul of the compound to the middle plate added with 47.6 ul of cell culture media at Bravo Automatic Liquid Station. Then transferring 5 ul to the cell culture plate (55 ul) to ensure the final DMSO concentration to be 0.4%. […]
i. Placing the cell culture plate in 5% CO2 incubator at 37° C. to continue cultivating for 3 days. d. Balancing Cell Titer Glo Reagent to room temperature e. Taking 30 ul of Cell Titer Glo Reagent in a 1:2 ratio into each well and gently mixing for 2 minutes f. Placing the cell culture plate in an incubator (23° C.) for 10 minutes, taking out and centrifuging at 1000 rpm for 1 minute g. Reading on Envision (Perkin Elmer) Plate Reader.
H. Analyzing Data: Analyzing the Data Using XLFIT (IDBS) and Calculating IC50 Values for the Compounds.

[1] = Pharmacokinetics after intravenous and intragastric administration (Experimental Example 4); assay type: in vivo; details: female Balb/c nude mice; for bioavailability / AUC(0-t) / Cmax / half-life / clearance / Vd: mouse, plasma; for Cmax: read-out: peak concentration (Cmax); for half-life: read-out: elimination half-life (T1/2) (converted); for clearance: read-out: plasma clearance (CL); for Vd: read-out: steady state apparent volume of distribution (Vdss)
Protocol: Experimental Procedure: A clear solution of the test compound in 20% DMSO/60% PEG400/20% water at 1 mg/ml was injected via the caudal vein into female Balb/c nude mice (fasted overnight, 7-9 weeks of age) with a dose of 1 mg/kg. The test compound suspended in 0.5% Methocel/0.2% Tween 80 at 1 mg/ml was administered by intragastric administration to female Balb/c nude mice (fasted overnight, 7-9 weeks of age) with a dose of 10 mg/kg. About 30 μL of blood collected from the jugular vein or caudal vein at 0.0833, 0.25, 0.5, 1.0, 2.0, 4.0, 8.0 and 24 h after administration in both groups of animals, were placed in anticoagulation tube with EDTA-K2 and the plasma was centrifuged. Plasma concentrations were determined by LC-MS/MS and related pharmacokinetic parameters were calculated using the non-compartmental model linear logarithmic trapezoidal method using WinNonlin™ Version 6.3 (Pharsight, Mountain View, Calif.) pharmacokinetic software.

[2] = po, single intragastric administration 10 mg/kg
[3] = po, single intragastric administration 10 mg/kg, read-out: AUC0-last
[4] = single intravenous injection 1.0 mg/kg, read-out: area under the plasma concentration curve (AUC0-last)
[5] = single intravenous injection 1.0 mg/kg
[6] = single intragastric administration 10 mg/kg

Row | IC50 (FGFR1) [µM] | IC50 (SNU-16 cell) [µM] | SMILES | also measured
1 | 0.05 to 1 |  | C[C@@H](Oc1ccc2[nH]nc(-c3cccc(C(=O)N4CCC(CO)CC4)c3)c2c1)c1c(Cl)cncc1Cl [Example 130] | 
2 | ≤ 0.01 |  | C[C@@H](Oc1ccc2[nH]nc(/C=C/c3cccc(CNC4CCOCC4)c3)c2c1)c1c(Cl)cncc1Cl [Example 132] | 
3 | ≤ 0.01 |  | C[C@@H](Oc1ccc2[nH]nc(/C=C/c3cccc(CN4CCC(O)C4)c3)c2c1)c1c(Cl)cncc1Cl (stereo partly drawn) [Example 134] | 
4 | ≤ 0.01 |  | C[C@@H](Oc1ccc2[nH]nc(/C=C/c3cccc(CN4CCC(CO)CC4)c3)c2c1)c1c(Cl)cncc1Cl [Example 135] | 
5 | ≤ 0.01 |  | C[C@@H](Oc1ccc2[nH]nc(/C=C/c3ccc(CN4CCOCC4)nc3)c2c1)c1c(Cl)cncc1Cl [Example 137] | 
6 | ≤ 0.01 |  | C[C@@H](Oc1ccc2[nH]nc(/C=C/c3ccc(CN4CC[C@H](O)C4)nc3)c2c1)c1c(Cl)cncc1Cl [Example 138] | 
7 | 0.01 to 0.05 |  | C[C@@H](Oc1ccc2[nH]nc(/C=C/c3ccc(CN4CCC(CO)CC4)nc3)c2c1)c1c(Cl)cncc1Cl [Example 140] | 
8 | 0.01 to 0.05 |  | C[C@@H](Oc1ccc2[nH]nc(/C=C(\F)c3ccc(CNC4CCOCC4)nc3)c2c1)c1ccncc1Cl [Example 142] | 
9 | 0.05 to 1 |  | CC(Oc1ccc2[nH]nc(/C=C(\F)c3ccc(CNC4CCOCC4)nc3)c2c1)c1ccc(F)cc1Cl (stereo not drawn) [Example 143] | 
10 | ≤ 0.01 |  | CC(Oc1ccc2[nH]nc(/C=C(\F)c3ccc(CNC4CCOCC4)nc3)c2c1)c1cc(F)cc(F)c1 (stereo not drawn) [Example 144] | 
11 | 0.05 to 1 |  | CC(Oc1ccc2[nH]nc(/C=C(\F)c3ccc(CNC4CCOCC4)nc3)c2c1)c1c(F)cccc1Cl (stereo not drawn) [Example 145] | 
12 | ≤ 0.01 |  | CC(Oc1ccc2[nH]nc(/C=C(\F)c3ccc(CNC4CCOCC4)nc3)c2c1)c1c(F)cncc1F (stereo not drawn) [Example 146] | 
13 | 0.05 to 1 |  | CC(Oc1ccc2[nH]nc(/C=C(\F)c3ccc(CNC4CCOCC4)nc3)c2c1)c1c(F)cccc1F (stereo not drawn) [Example 147] | 
14 | 0.05 to 1 |  | CCN1CCC(C(C)Oc2ccc3[nH]nc(/C=C/c4ccc(CN5CCOCC5)cc4)c3c2)CC1 (stereo not drawn) [Example 148] | 
15 | 0.05 to 1 |  | CC(Oc1ccc2[nH]nc(/C=C/c3ccc(CN4CCOCC4)cc3)c2c1)C1CCN(C)CC1 (stereo not drawn) [Example 149] | 

More lines, now with the values behind:

Row | SMILES | IC50 (FGFR1) [µM] | IC50 (SNU-16 cell) [µM] | also measured
16 | CC(Oc1ccc2[nH]nc(/C(F)=C/c3ccc(CN4CCOCC4)nc3)c2c1)c1c(Cl)cncc1Cl (racemic) [Example 1] | 0.05 to 1 | 0.01 to 1 | 
17 | C[C@H](Oc1ccc2[nH]nc(/C=C(\F)c3ccc(CNC4CCOCC4)nc3)c2c1)c1c(Cl)cncc1Cl [Example 17] | 0.05 to 1 | ≤ 0.01 | 
18 | C[C@@H](Oc1ccc2[nH]nc(/C=C(\F)c3ccc(CN4CCC(CO)CC4)nc3)c2c1)c1c(Cl)cncc1Cl [Example 21] | ≤ 0.01 | ≤ 0.01 | 
19 | C[C@@H](Oc1ccc2[nH]nc(/C=C(\F)c3ccc(CN4CCN(CC(=O)O)CC4)nc3)c2c1)c1c(Cl)cncc1Cl [Example 29] | ≤ 0.01 | 0.01 to 1 | 
20 | C[C@@H](Oc1ccc2[nH]nc(/C=C(\F)c3ccc(CN4CCNCC4)nc3)c2c1)c1c(Cl)cncc1Cl [Example 32] | ≤ 0.01 | ≤ 0.01 | 
21 | C[C@@H](Oc1ccc2[nH]nc(/C=C(\F)c3ccc(CN4CCN(C)CC4)nc3)c2c1)c1c(Cl)cncc1Cl [Example 33] | ≤ 0.01 | ≤ 0.01 | 
22 | COC1CCN(Cc2ccc(/C(F)=C/c3n[nH]c4ccc(O[C@H](C)c5c(Cl)cncc5Cl)cc34)cn2)C1 (stereo partly drawn) [Example 34] | ≤ 0.01 | ≤ 0.01 | 
23 | C[C@@H](Oc1ccc2[nH]nc(/C=C(\F)c3ccc(OCC4CCOCC4)nc3)c2c1)c1c(Cl)cncc1Cl [Example 41] | 0.05 to 1 | ≤ 0.01 | 
24 | C[C@@H](Oc1ccc2[nH]nc(/C=C(\F)c3ccc(NC4CCOCC4)nc3)c2c1)c1c(Cl)cncc1Cl [Example 45] | 0.05 to 1 | ≤ 0.01 | 
25 | C[C@@H](Oc1ccc2[nH]nc(/C=C(\F)c3ccc(NC4CCNCC4)nc3)c2c1)c1c(Cl)cncc1Cl [Example 47] | ≤ 0.01 | ≤ 0.01 | 
26 | CC(Oc1ccc2[nH]nc(/C=C/c3cnc(CN4CCOCC4)cn3)c2c1)c1c(Cl)cncc1Cl (stereo not drawn) [Example 53] | 0.01 to 0.05 | ≤ 0.01 | 
27 | CC(Oc1ccc2[nH]nc(/C=C/c3cc(F)c(CN4CCOCC4)cc3C#N)c2c1)c1c(Cl)cncc1Cl (stereo not drawn) [Example 62] | 0.05 to 1 | ≤ 0.01 | 
28 | CC(Oc1ccc2[nH]nc(-c3ccc(NC(=O)CN4CCOCC4)nc3)c2c1)c1c(Cl)cncc1Cl (stereo not drawn) [Example 70] | 0.05 to 1 | ≤ 0.01 | 
29 | CC(Oc1ccc2[nH]nc(/C=C/c3ccc(CNC4CCN(C)CC4)cc3)c2c1)c1c(Cl)cncc1Cl (stereo not drawn) [Example 76] | ≤ 0.01 | ≤ 0.01 | 
30 | CC1CN(C(=O)c2ccc(-c3n[nH]c4ccc(OC(C)c5c(Cl)cncc5Cl)cc34)cc2)CCN1 (stereo not drawn) [Example 112] | 0.05 to 1 |  | 
31 | CC(Oc1ccc2[nH]nc(-c3ccc(C(=O)N4CCOCC4)cc3)c2c1)c1c(Cl)cncc1Cl (stereo not drawn) [Example 113] | 0.05 to 1 |  | 
32 | CC(Oc1ccc2[nH]nc(-c3ccc(C(=O)N4CCC(O)CC4)cc3)c2c1)c1c(Cl)cncc1Cl (stereo not drawn) [Example 114] | 0.05 to 1 |  | 
33 | CC(Oc1ccc2[nH]nc(-c3ccc(C(=O)N4CCC(N(C)C)CC4)cc3)c2c1)c1c(Cl)cncc1Cl (stereo not drawn) [Example 115] | 0.01 to 0.05 |  | 
34 | CC(Oc1ccc2[nH]nc(-c3ccc(C(=O)N4CCN(C)CC4)cc3)c2c1)c1c(Cl)cncc1Cl (stereo not drawn) [Example 116] | 0.05 to 1 |  | 
35 | CC(Oc1ccc2[nH]nc(-c3ccc(C(=O)N4CCN(C(C)C)CC4)cc3)c2c1)c1c(Cl)cncc1Cl (stereo not drawn) [Example 117] | 0.05 to 1 |  | 
36 | CC(Oc1ccc2[nH]nc(-c3ccc(C(=O)N4CCC(O)C4)cc3)c2c1)c1c(Cl)cncc1Cl (stereo not drawn) [Example 119] | 0.05 to 1 |  | 
37 | CC(=O)N(C)C1CCN(C(=O)c2ccc(-c3n[nH]c4ccc(OC(C)c5c(Cl)cncc5Cl)cc34)cc2)C1 (stereo not drawn) [Example 120] | 0.05 to 1 |  | 
38 | CC(Oc1ccc2[nH]nc(-c3ccc(C(=O)N4CC[C@@H](N(C)C)C4)cc3)c2c1)c1c(Cl)cncc1Cl (stereo partly drawn) [Example 121] | 0.05 to 1 |  | 
39 | CC(Oc1ccc2[nH]nc(-c3ccc(C(=O)NCCN4CCOCC4)cc3)c2c1)c1c(Cl)cncc1Cl (stereo not drawn) [Example 125] | 0.05 to 1 |  | 
40 | CC(Oc1ccc2[nH]nc(-c3ccc(C(=O)N4CCNCC4C)cc3)c2c1)c1c(Cl)cncc1Cl (stereo not drawn) [Example 126] | 0.05 to 1 |  | 
41 | C[C@@H](Oc1ccc2[nH]nc(-c3cccc(C(=O)NC4CCOCC4)c3)c2c1)c1c(Cl)cncc1Cl [Example 127] | 0.05 to 1 |  | 
42 | C[C@@H](Oc1ccc2[nH]nc(-c3cccc(C(=O)N4CC[C@H](O)C4)c3)c2c1)c1c(Cl)cncc1Cl [Example 129] | 0.05 to 1 |  | 
43 | C[C@@H](Oc1ccc2[nH]nc(/C=C/c3ccc(CNC4CCOCC4)nc3)c2c1)c1c(Cl)cncc1Cl [WX_015, reference compound] |  |  | bioavailability [1, 2]: 11.4%; AUC(0-t) [1, 3]: 0.439 ± 0.202 µM·h; Cmax [1, 2]: 134 ± 68.3 nM; AUC(0-t) [1, 4]: 0.386 ± 0.0883 µM·h; half-life [1, 5]: 0.971 ± 0.461 h; clearance [1, 5]: 83.5 ± 18.5 mL/min/kg; Vd [1, 5]: 5.31 ± 0.268 L/kg; peak time [1, 6]: 1.50 ± 0.866 h
44 | C[C@@H](Oc1ccc2[nH]nc(/C=C(\F)c3ccc(CNC4CCOCC4)nc3)c2c1)c1c(Cl)cncc1Cl [WX_018] |  |  | bioavailability [1, 2]: 30.1%; AUC(0-t) [1, 3]: 1.65 ± 0.0401 µM·h; Cmax [1, 2]: 479 ± 62.9 nM; AUC(0-t) [1, 4]: 0.567 ± 0.0194 µM·h; half-life [1, 5]: 1.57 ± 0.0286 h; clearance [1, 5]: 53 ± 1.69 mL/min/kg; Vd [1, 5]: 5.45 ± 0.491 L/kg; peak time [1, 6]: 2.00 h
